# US6582899B1, “Methods for identifying agents that cause a lethal phenotype, and agents thereof” (Deltagen Proteomics, Inc., priority 2000, dated 2003)
# Where no end group is shown, it is not given here.
# B1: 0195: cytotoxic agent isolated from clone 0195, SEQ ID NO: 22 (protein)
# chain: PEILSRSHLLLAGQTLIGVVAMVVEAEGEEDPWAVEAMEVVAVVVVAEEDFPVEVVAVEDSSELVTGSVLIPPVRI
# B2: BID: BID clone among the Sort VI clones tested in the HT29 floater assay (FIG. 10) (protein, UniProt P55957 1-195, looked up)
# BH3-interacting domain death …: MDCEVNNGSSLRDECITNLLVFGFLQSCSDNSFRRELDALGHELPVLAPQWEGYDELQTDGNRSSHSRLGRIEADSESQEDIIRNIARHLAQVGDSMDRSIPPGLVNGLALQLRNTSRSEEDRNRDLATALEQLLQAYPRDMEKEKTMLVLALLLAKKVASHTPSLLRDVFHTTVNFINQNLRTYVRSLARNGMD
# Assays:
# [1] = test system: HS294T cells; assay: Ethidium homodimer/Syto16 staining for cell death and nuclear morphology; assay type: cell-based
# Experimental: (§1) Two cell lines, WM35 and HS294T, were plated out (50,000 cells per well, 24 well plate) and allowed to adhere. After 24 hours, the cells were treated for 4 hours with varying concentrations (5-80 μM) of Cisplatin (cis-platinum (II) diammine dichloride), a well-known chemotherapeutic agent that induces apoptosis. […] Adherent cell populations were then lifted from the solid support by trypsinization, centrifuged (400×g), and resuspended in PBS (0.125 ml). To observe the nuclear morphology and percent cell death in the WM35 and HS294T cell lines, cells from both floater and adherent populations were stained concurrently with Syto16 and ethidium homodimer (125 ul of cell suspension+2.5 ul 62.5 uM Syto16+[…] 100 ug/ml ethidium homodimer, 10 minutes at 37° C.). Ethidium homodimer is a membrane impermeant compound that fluoresces in the 617 nm range when it is intercalated with chromosomal DNA. Thus, in a mixed cell population containing both living and dead/dying cells, only those cells whose membranes have been compromised will stain with ethidium homodimer. In contrast, Syto 16 (Molecular Probes) is a membrane permeant dye that fluoresces in the 518 nm range when associated with chromosomal DNA. Together, these two dyes can be used to observe and distinguish the nuclear morphology in a population containing both living and dead/dying cells.
# [2] = test system: WM35 cells; assay: as above; assay type: cell-based
# Experimental: as §1
# [3] = test system: WM35 (melanoma) cells; assay: Caspase-3 fluorescent substrate (Rhodamine 123-YVAD) and PI staining of floater cells, FACS; assay type: cell-based; details: PI-minus floater cells, 15 μg/ml, 18-24 hours after induction
# Experimental: WM35 cells were passed one day prior to induction of apoptosis and incubated for 24 hrs to allow the cells to attach to the substrate. The media was subsequently removed, the remaining adherent cells washed 1× with PBS, and subsequently exposed to Cisplatin (15 μg/ml) in fresh media. Eighteen to twenty-four hours after the induction of apoptosis, the floater cell population was collected, pelleted by centrifugation (400×g), and resuspended at 3×10^6 cells/ml in PBS. Samples were then split into four groups: (1) uninduced minus Rhodamine 123-YVAD (substrate), (2) uninduced plus substrate, (3) induced minus substrate, and (4) induced plus substrate. For samples exposed to Rhodamine 123-YVAD substrate, 50 ul of a pre-warmed (37° C.) cell suspension was combined with 25 ul of a stock substrate solution (Cellprobe). Samples were incubated for 60 minutes at 37° C. and then placed on ice prior to FACS analysis. In addition to caspase-3 staining, a replicate of each sample was stained with propidium iodide to determine the percentage of cells within the population whose membranes had been compromised and the overlap between PI and caspase-3 staining. […] Emission spectra were read at 515-535 nm wavelength using the FL1 (PMT2) 525 nm blue filter.
# [4] = test system: HT29 colon cancer cells; assay: HT29 floater assay (negative selection); assay type: cell-based; details: for level of floaters relative to background: Sort VI clones, FIG. 10
# Experimental: HT29 cells were tested for feasibility in the floater cell assay as follows. Briefly, six flasks were inoculated with 6.25×10^5 HT29 cells/flask on Day 0. On Day 1, after the cells had been allowed to adhere to the solid support, two of these flasks were infected with retroviral supernatant containing the retroviral vector pVT324, which includes a selectable drug resistant marker (e.g. neomycin), and which constitutively expresses a green fluorescent protein. Of the remaining four flasks, two were mock infected (i.e. exposed to all of the same reagents/conditions as flasks 1 and 2, minus the retrovirus, see “Example 3C”) and two were left undisturbed. On Day 2, this procedure was repeated (i.e. a double infection). On Day 3 (and subsequently on Day 5) one flask was selected from each of the three groups and processed by separating and counting the floater and adherent cell populations. In the case of the floater cell population, the media was collected, centrifuged at 200×g for 10 minutes, and resuspended in PBS prior to removing a sample for counting on a hemocytometer. For the adherent cell population, cells were first removed from the flask by trypsinization, centrifuged, and then processed for analysis in a fashion analogous to the floater cells. To determine the inherent background level of floater cells present in the population, the ratio of the number of floater cells to the total number of cells (adherent cells+floater cells) was analyzed on both the Day 3 and Day 5 flasks that had not been manipulated. These numbers were compared with the analogous numbers taken from infected and mock-infected flasks to determine whether the retrovirus or transfection procedures altered background floater rates. To determine the susceptibility of HT29 cells to retroviral infection, the fraction of cells that expressed GFP in pVT324 infected flasks was calculated using flow cytometry.
# Twenty T175 flasks were seeded with 2.2×10^6 HT29 cells/flask in McCoy's 5A media (Gibco BRL) modified with 10% FBS. On Day 1, each flask was infected (4 μg/ml polybrene, 50% volume) with a retroviral supernatant containing a commercially obtained brain cDNA library (“Example Three” above). On Day 2 the media was changed. On Day 3 both the floater and adherent cell populations were collected (separately) from the twenty flasks. Approximately 652,500 floaters were isolated from a theoretical background of 4.2×10^7 adherents (1.5% floaters) and frozen down for future studies. […] Additional floater cells were then collected Day 5, where the collection and counting procedures were repeated and some 7.8×10^6 floaters and 7.6×10^8 adherents were counted (1.03% floaters). […] The floater populations of Days 3 and 5 were then combined and readied for a genomic DNA prep using a QIAamp kit (Qiagen) following standard procedures. Briefly, some 9×10^6 floater cells in PBS were lysed to release gDNA. This material was passed over a QIAamp column that was then washed several times to remove protein and RNA contaminants. Twenty-seven micrograms of genomic DNA were then eluted from the columns with dH2O and treated with RNAse A to eliminate any RNA contamination. This gDNA was then subjected to PCR procedures to amplify the library sequences encoded therein. […]
# [5] = test system: HuVECs 9F0293 cells; assay: Time course of detachment and PI staining of HuVECs (9F0293); assay type: cell-based, Human; details: 2 ug/ml
# Experimental: To determine the time course in which dead and/or dying HuVECs detach from the solid support in response to a cytotoxic agent, 9F0293 cells were plated and subsequently treated with puromycin (2 ug/ml). Both floater and adherent cell populations were then collected at varying times (t=4, 7, 9, 16, 20, and 24 hours) and analyzed to determine (a) the percent PI^+ cells in the floater population and (b) the fraction of cells which became floaters. […] The fraction of floaters that stained with PI (PI^+ population) increased with time.
# [6] = test system: ecdysone receptor (pVgRXR); assay: Induction of GFP fluorescence from ecdysone-regulated vector pBIGFII in ECR293 cells; assay type: cell-based; details: 5 μM, cells containing pBIGFII and pVgRXR
# From the text: As an alternative to the constitutive pCLMFG vector, an inducible construct that can be regulated by ecdysone was constructed as follows. The PmII/XhoI fragment from pVT324 was inserted into the MCS of the PIND vector (Invitrogen). This product was then digested with BgIII, blunt-ended and inserted into a pBabe-K-ras vector (pVT313-based) that had been digested with BamHI/XhoI and blunted (Klenow Fragment). The resulting vector was designated pBabe-Forward-1. The XbaI fragment of pVT324 was then inserted into the compatible site of pBabe-Forward-1. The resulting vector was designated pBIGFII. Vector pBIGFII was subsequently transfected into cells (ECR293, Invitrogen) that contain an endogenous copy of the ecdysone receptor (pVgRXR).
# [7] = biological target: epitope in the mitochondrial membrane that is exposed only in cells that are undergoing apoptosis (Jurkat cells, permeabilized with digitonin); assay: flow cytometry, digitonin-permeabilized Jurkat cells, 0 hours in anti-FAS antibody
# [8] = biological target: epitope in the mitochondrial membrane that is exposed only in cells that are undergoing apoptosis (Jurkat cells, permeabilized with digitonin); assay: flow cytometry, digitonin-permeabilized Jurkat cells, 21 hours in anti-FAS antibody (1 ug/ml)
# [9] = test system: T47D cells; assay: Kill curve in T47D cells (cell number after 5 days); assay type: cell-based
# Experimental: Approximately 250,000 cells were seeded into each well of a six well plate. Cells were then grown in media containing camptothecin of varying concentrations (0-10 uM). After 5 days, the number of cells remaining in each of the camptothecin-treated wells was compared with untreated controls. From these experiments, it was determined that camptothecin concentrations ranging from 1-4 nM had no effect on T47D cell number over the course of the 5 days of treatment. […] In order to determine whether this level of treatment is concomitantly increasing the number of floaters in the population, several flasks are seeded with T47D cells and then treated with 1-4 nM concentrations of camptothecin. After a period of three to five days, the media is collected and the number of floater cells are counted and compared to the total number of cells in the flask (floaters+adherents).
# [10] = test system: HT29 cells; assay: Induction of apoptosis in HT29 cells (detachment, nuclear morphology); assay type: cell-based; details: after 48 hours of treatment
# [11] = floater population, 5-80 μM for 4 hours, 18-24 hrs later
molecule,measurement,setting,value
"N.N.[Cl-].[Cl-].[Pt+2] [Cisplatin, cis-platinum (II) diammine dichloride]",ethidium homodimer staining of adherent cell population,[1]; adherent population,< 10%
same,cells showing condensed or fragmented nuclei,"[1]; ethidium homodimer stained floater cells, fluorescent microscopy",< 20%
same,floater cells stained with ethidium homodimer,[1]; [11],greater than 50%
same,ethidium homodimer staining of adherent cell population,[2]; adherent population,< 10%
same,ethidium homodimer staining of floaters,[2]; [11],45-50%
same,condensed or fragmented nuclei in floaters,"[2]; floaters, higher concentrations",40-50%
same,caspase-3 positive cells,[3],94.6%
"0328: cytotoxic agent isolated from clone 0328, SEQ ID NO: 23 (XXAVAWLGSTGMTCGAQRLRSLR; X: residue not identified in the source) [compound 0328]",level of floaters relative to background,[4],increased levels of floaters that were statistically significant relative to background
same,floater rate,[4]; individual clone reintroduced into HT29 cells,2%
COc1ccc(C[C@H](N)C(=O)N[C@H]2[C@@H](O)[C@H](n3cnc4c(N(C)C)ncnc43)O[C@@H]2CO)cc1 [puromycin],time point at which the majority of cells detached,[5],16 h
same,floater cells in the PI+ gate,[5]; by 20 hours,nearly all
CC(C)CC[C@@H](O)[C@](C)(O)[C@H]1CC[C@@]2(O)C3=CC(=O)[C@@H]4C[C@@H](O)[C@@H](O)C[C@]4(C)[C@H]3CC[C@]12C [ponesterone A],increase of the level of fluorescence,[6],approximately thirty
"Apo2.7 monoclonal antibody (Coulter Immunotech), fluorescent R-phycoerythrin-cyanin labeled",percent of population labeled,[7],4%
same,percent of population labeled,[8],81%
CC[C@@]1(O)C(=O)OCc2c1cc1n(c2=O)Cc2cc3ccccc3nc2-1 [camptothecin],cell number relative to the untreated control,"[9]; 10 nM, 5 days",roughly one third
same,concentrations with no effect on cell number,[9]; 5 days of treatment,1 to 4 nM
CSc1ccc(/C=C2/C(C)=C(CC(=O)O)c3cc(F)ccc32)cc1 [sulindac sulfide],detachment and apoptotic morphology,[10],majority of the cells had detached from the dish and showed typical apoptotic morphology
B1,level of floaters relative to background,[4],increased levels of floaters that were statistically significant relative to background
B2,level of floaters relative to background,[4],increased levels of floaters that were statistically significant relative to background
